Laboratory results reported in patent US3943137A, “Acronycine derivatives” (University of Kansas Endowment Association, priority 1973, dated 1976).
Several values for one entry are separate records, joined by “and”; a condition that tells them apart may be missing. Equal entries are not always repeated. Structures can show the parent of a compound that is named as a salt. Where two headings read alike, the source gives them in different places. One block for each molecule: values may come before it.

How the values were obtained:
Assay type in all cases: physicochemical
[1] = Hydrolysis of acylacronycinium salts in aqueous solution (no complexing agent); conditions: for half-life: read-out: t1/2 (hydrolysis)
[2] = Hydrolysis of acylacronycinium salts in presence of complexing agents; conditions: for half-life at 100 µM: 10^-4 M drug, 25° C., pH 6.0, read-out: Apparent half-life, t1/2; for k (hydrolysis): gentisic acid (0.05 M)
Experimental: In studying the kinetics of hydrolysis of the aforesaid quaternary acyl acronycinium salts to yield acronycine, it was determined that the increased solubility and the rapid rate of hydrolysis were such that said quaternary derivatives were eminently well suited for use as pro-drugs. Nevertheless, the facility with which hydrolysis occurred in water presented one problem of too rapid precipitation from solution as a consequence of the formation of the slightly soluble acronycine free base. In order to prevent any objectionable hydrolysis of the pro-drug in aqueous solution prior to administration, it was discovered that the hydrolytic rate thereof could be retarded by the formation of intermolecular complexes therewith. […] Moreover, since complexation is an equilibrium phenomenon, extensive complexation occurs in the relatively concentrated drug solution. However, upon dilution with aqueous media such as body fluids, the complex species dissociates, and the pro-drug is then rapidly hydrolyzed to the desired drug species, namely, the acronycine free base. Exemplary of the complexing agents which can be used in aqueous solutions of the acylacronycinium salts to retard the hydrolysis thereof are a wide variety of the organic acids and alkali metal salts thereof, preferably the cyclic and aromatic organic acids, and most preferably the hydroxy aromatic acids. Representative of same are gentisic acid, gamma-resorcylic acid, p-hydroxycinnamic acid, 2-furoic acid, m-hydroxycinnamic acid, 3,4-dimethylcinnamic acid and 3-methylgentisic acid, and the sodium and other salts thereof. A suitably stable and useful formulation of an acylacronycinium salt for use in the preparation of pharmaceutical solutions can be simply made by preparing a powder mixture of the desired acylacronycinium salt and a suitable complexing agent in such proportions and amounts that upon addition of an aqueous solvent, the resulting solution would be of a composition such that the hydrolysis of the acylacronycinium salt would be greatly retarded.
Among the number of the hydroxy aromatic acids, particularly the hydroxy benzoic acids that have been utilized according to the invention, excellent results have been attained with the preferred 2,5-dihydroxy-benzoic acid (gentisic acid). […] Mathematical analysis of the results dictates describing this system by two equilibria; one to one complex and one to two complex formation (one drug and two ligand), with the 1:1 complex and the free drug hydrolyzing with half-lives of 120 and 23 minutes, respectively. The solid curve of the FIGURE of drawing illustrates the result of such model. Constants required for the t1/2 calculations were as follows:
and the experimental conditions were:
Use of suitable complexing agents in aqueous solutions of the acylacronycinium salts retarded the hydrolysis of such compounds. Some of the complexing agents used were the following: sodium gentisate, sodium gamma-resorcylate and sodium cinnamate. Table I reflects the effects of sodium gentisate concentration on the apparent rate of hydrolysis of acetylacronycinium perchlorate.
Apparent half-line of acetylacronycinium perchlorate
(10^-^4 M) as a function of sodium gentisate concentration
in water at 25° C. pH = 6.0.
Experimental: Twenty-five mg of acetylacronycinium perchlorate and 4.6 g of sodium gentisate were powdered, mixed and placed in a suitable vial and sealed. Just prior to use, 100 ml of water was added to the vial, and the solid material dissolved rapidly, yielding a solution which was about 10^^-3 M with respect to acetylacronycinium perchlorate and about 0.2 Molar with respect to sodium gentisate.

Solubility = conditions: water; for solubility (qualitative): acetone, benzene
[3] = acetate buffer (25° C.), replicate runs
[4] = phosphate buffer (25° C.), replicate runs
[5] = phosphate buffer, 25° C., pH not given, three runs
[6] = phosphate buffer, pH 7.60, 25°C

SMILES: COc1cc2c(c3c1c(OC(C)=O)c1ccccc1[n+]3C)C=CC(C)(C)O2 [Acetylacronycinium Chloride]
- k (hydrolysis) ([1]; methanol/water (90/10), pH 0.28): 0.000413 s⁻¹
- half-life ([1]; methanol/water (90/10), pH 0.28, methanol/water (90/10), pH 0.28): 0.467 h
- k (hydrolysis) ([1]; methanol/water (90/10), pH 1.28): 0.000417 s⁻¹
- half-life ([1]; methanol/water (90/10), pH 1.28, methanol/water (90/10), pH 1.28): 0.462 h

SMILES: COc1cc2c(c3c1c(OC(C)=O)c1ccccc1[n+]3C)C=CC(C)(C)O2 [Acetylacronycinium Sulfate]
- k (hydrolysis) [1, 3]: 0.000436 s⁻¹ and 0.000423 s⁻¹
- t1/2 (hydrolysis) [1, 3]: 0.455 h
- half-life ([1]; acetate buffer, acetate buffer (25° C.), replicate runs): 0.442 h
- k (hydrolysis) [1, 4]: 0.0006 s⁻¹ and 0.000586 s⁻¹ and 0.000538 s⁻¹
- t1/2 (hydrolysis) [1, 4]: 0.328 h and 0.358 h
- half-life ([1]; phosphate buffer, phosphate buffer (25° C.), replicate runs): 0.322 h

SMILES: COc1cc2c(c3c1c(OC(=O)C(C)C)c1ccccc1[n+]3C)C=CC(C)(C)O2 [Isobutyrylacronycinium Perchlorate]
- k (hydrolysis) ([1]; phosphate buffer, pH 6.33, 24° C.): 0.0003428 s⁻¹
- half-life ([1]; phosphate buffer, pH 6.33, phosphate buffer, pH 6.33, 24° C.): 0.562 h

- hydrolysis on storage ([1]; overnight in desiccator while still moist): Some hydrolysis occurred overnight
SMILES: COc1cc2c(c3c1c(OC(=O)C(F)(F)F)c1ccccc1[n+]3C)C=CC(C)(C)O2 [Trifluoroacetylacronycinium Perchlorate]
- reactivity with chloroform ([1]; chloroform): little reaction with chloroform (until water was added)
- reactivity with water and methanol ([1]; water and methanol): reacted very quickly with water and methanol

SMILES: COc1cc2c(c3c1c(OC(C)=O)c1ccccc1[n+]3C)C=CC(C)(C)O2 [acetylacronycinium perchlorate, Acetylacronycinium Perchlorate]
- t1/2 and k of hydrolysis, 3,4-dihydroxycinnamic acid complex ([2]; 3,4-dihydroxycinnamic acid, pH 6.5, 25° C., 0.05 M phosphate buffer): roughly comparable to those generated with the sodium gentisate complex
- t1/2 and k of hydrolysis, cinnamic acid complex ([2]; cinnamic acid, pH 6.5, 25° C., 0.05 M phosphate buffer): roughly comparable to those generated with the sodium gentisate complex
- t1/2 and k of hydrolysis, gamma-resorcylic acid complex ([2]; gamma-resorcylic acid, pH 6.5, 25° C., 0.05 M phosphate buffer): roughly comparable to those generated with the sodium gentisate complex
- t1/2 1:2 Complex ([2]; model constant, sodium gentisate, μ = 1.0 M, 25.0°C, pH 6.5, 520 nm): .infin.
- t1/2 and k of hydrolysis, p-hydroxycinnamic acid complex ([2]; p-hydroxycinnamic acid, pH 6.5, 25° C., 0.05 M phosphate buffer): roughly comparable to those generated with the sodium gentisate complex
- rate of hydrolysis with sodium gentisate ([2]; sodium gentisate, FIGURE): greatly reduced
- K1:1 (complexation constant) ([2]; sodium gentisate, one drug, one ligand, μ = 1.0 M, 25.0°C, pH 6.5, 520 nm, in M^-1 (unit assumed)): 4,081
- k1:2 (complexation constant) ([2]; sodium gentisate, one drug, two ligand, μ = 1.0 M, 25.0°C, pH 6.5, 520 nm): 80,000
- half-life at 1000 µM ([2]; water, about 10^-3 M drug, about 0.2 Molar sodium gentisate, water, reconstituted powder mixture, read-out: apparent hydrolytic half-life (converted)): ~9.5 h
- half-life at 100 µM ([2]; water, pH 6, sodium gentisate 0 M/l, water): 0.383 h
- half-life at 100 µM ([2]; water, pH 6, sodium gentisate 0.1 M/l, water): 5.83 h
- half-life at 100 µM ([2]; water, pH 6, sodium gentisate 0.2 M/l, water): 9.63 h
- half-life at 100 µM ([2]; water, pH 6, sodium gentisate 1 × 10^-2 M/l, water): 2.08 h
- half-life at 100 µM ([2]; water, pH 6, sodium gentisate 2 × 10^-2 M/l, water): 2.6 h
- half-life at 100 µM ([2]; water, pH 6, sodium gentisate 2.5 × 10^-3 M/l, water): 1.55 h
- half-life at 100 µM ([2]; water, pH 6, sodium gentisate 4 × 10^-2 M/l, water): 3.45 h
- half-life at 100 µM ([2]; water, pH 6, sodium gentisate 5 × 10^-3 M/l, water): 1.8 h
- half-life at 100 µM ([2]; water, pH 6, sodium gentisate 6 × 10^-2 M/l, water): 4.33 h
- half-life at 100 µM ([2]; water, pH 6, sodium gentisate 8 × 10^-2 M/l, water): 4.92 h
- half-life ([2]; water, pH 6.5, 1:1 complex with sodium gentisate, two-equilibria model, μ = 1.0 M, 25.0°C, pH 6.5, 520 nm, read-out: half-life of hydrolysis, 1:1 complex): 2 h
- half-life ([2]; water, pH 6.5, model constant, sodium gentisate, μ = 1.0 M, 25.0°C, pH 6.5, 520 nm, read-out: t1/2 1:1 Complex): 1.98 h
- solubility (qualitative) (Solubility): insoluble in benzene, but soluble in water and acetone
- increase in solubility over the free base (Solubility): hundredfold increase in solubility
- solubility (Solubility; read-out: Solubility): ~250 µg/mL
- solubility (Solubility; read-out: solubility in water): 250 µg/mL
- enthalpy of activation of hydrolysis [1]: about 20 kcal/mole
- effect of dielectric constant on hydrolysis rate ([1]; increasing dielectric constant): greatly increased
- effect of ionic strength, pH, anion, ester group size on hydrolysis rate ([1]; ionic strength, pH (below 8-9), anion, ester group size): remarkably insensitive

SMILES: COc1cc2c(c3c1c(=O)c1ccccc1n3C)C=CC(C)(C)O2 [perchlorate salt, acronycinium perchlorate]
- solubility (qualitative) (Solubility): soluble in water and insoluble in acetone and benzene

- t1/2 (hydrolysis) [1, 5]: 0.2985 h and 0.3997 h
- half-life [1, 5]: 0.268 h
SMILES: COc1cc2c(c3c1c(OC(=O)C(C)(C)C)c1ccccc1[n+]3C)C=CC(C)(C)O2 [pivalylacronycinium perchlorate, Pivalylacronycinium Perchlorate]
- k (hydrolysis) [1, 5]: 0.000717 s⁻¹ and 0.000645 s⁻¹ and 0.000482 s⁻¹

SMILES: CCC(=O)Oc1c2ccccc2[n+](C)c2c3c(cc(OC)c12)OC(C)(C)C=C3 [propionylacronycinium perchlorate, Propionylacronycinium Perchlorate]
- half-life ([2]; 0.05 m gentisic acid, pH 2.7, gentisic acid (0.05 M), pH 2.70, 25°C, read-out: t1/2 (hydrolysis)): 1.71 h
- half-life ([2]; 0.05 m gentisic acid, pH 2.78, gentisic acid (0.05 M), pH 2.78, 25°C, read-out: t1/2 (hydrolysis)): 1.44 h
- k (hydrolysis) ([2]; pH 2.70, 25°C): 0.0067 min⁻¹
- k (hydrolysis) ([2]; pH 2.78, 25°C): 0.008 min⁻¹
- k (hydrolysis) ([1]; phosphate buffer, pH 7.50, 25°C): 0.000467 s⁻¹
- half-life ([1]; phosphate buffer, pH 7.5, phosphate buffer, pH 7.50, 25°C): 0.407 h
- k (hydrolysis) [1, 6]: 0.000767 s⁻¹ and 0.000783 s⁻¹
- t1/2 (hydrolysis) [1, 6]: 0.243 h
- half-life ([1]; phosphate buffer, pH 7.6, phosphate buffer, pH 7.60, 25°C): 0.248 h
